The subject of assay [1] is multidrug resistant P. falciparum strain Dd2. The assay is described as follows: SYBR Green I Plasmodium growth inhibition assay (fixed concentration screen and EC50). In kind it is cell-based, Plasmodium falciparum. The following applies: Plasmodium falciparum; Pf Dd2, 1 µM, 72 h; read-out: Inhibition One-point (%). The method, then:
P. falciparum cultures were maintained under standard culture conditions in RPMI 1640 medium supplemented with 25 mM HEPES, pH 7.4, 26 mM NaHCO3, 2% dextrose, 15 mg/L hypoxanthine, 25 mg/L gentamycin, and 0.5% Albumax II maintained at 37°C in 5% CO2 and 95% air. Initially, a fixed concentration phenotypic screening was performed against multidrug resistant P. falciparum strain Dd2 (resistant to chloroquine, pyrimethamine, and mefloquine) using a SYBR Green I assay ([Johnson et al., 2007]; [Vossen et al., 2010]). An EVO-150 robotic liquid handler (Tecan, Morrisville, NC) was used to aliquot compounds at a final concentration of 1 µM followed by addition of culture to 96-well plates (Greiner, Monroe, NC) at 1% parasitemia, 2% hematocrit. Plates were incubated for 72 h at 37°C in a humidified atmosphere 5% CO2/95% air prior to freezing. Plates were subsequently thawed and 1X SYBR Green I was added with lysis buffer (20 mM Tris-HCl, 0.08% saponin, 5 mM EDTA, 0.8% Triton X-100). After incubation at room temperature in dark for 1 h, the fluorescent emission was measured at excition and emission wavelengths of 485 nm and 530 nm, respectively, using a BioTek Synergy neo2 (Winooski, VT) plate reader. […] Curve fitting was performed using GraphPad Prism and EC50 value was determined for each compound.

The subject of assay [2] is human hepatoma cell line HepG2. Briefly: MTS based cytotoxicity assay (counter-screen for selectivity). The following applies: 48 h. In kind it is cell-based. The method, then:
Selectivity was determined by counter-screening against human hepatoma cell line HepG2 in a MTS (3-(4,5-Dimethylthiazol-2-yl)-5-(3-carboxymethoxyphenyl)-2-(4-sulfophenyl)-2H-tetrazolium) based cytotoxicity assay (CellTiter 96® Aqueous One, Promega, Madison, WI) ([Riss et al., 2004]). Briefly, microtiter plates were seeded with 1,500 cells per well in a 384 well plate and incubated for 24 h at 37°C in 5% CO2/95% air atmosphere. The next day, compounds were added at seven different serially diluted concentrations starting at 25 µM d incubated for additional 48 h at stated conditions. MTS solution was next added to each well, incubated for additional 3 h at 37°C, and absorbance was read at 490 nm using BioTek Synergy neo 2 plate reader. Untreated cells served as control. Curve fitting was performed using GraphPad Prism and EC50 value was determined.
A general note: Tetrazolium dyes change colour on reduction, which living cells bring about.

For the next assay, the system named is Pf Dd2. Briefly: Rate of killing determination. In kind it is cell-based, Plasmodium falciparum. The following applies: synchronized Dd2, exposure 6 or 12 h, parasitemia tracked for 6 days. The method, then: Pf Dd2 culture was synchronized as described ([Roberts et al., 2016]), plated into 24 well plates at 2% parasitemia and 2% hematocrit at 6 hpi. […] Each well was exposed to the inhibitor for either 6 or 12 h using dihydroartemisinin (DHA) (25 µM) and untreated culture as controls. After washing the compounds off, the media was changed twice a day. The parasitemia was tracked for 6 days after addition of compounds. Thin smears were stained with Giemsa, and parasitemia was counted using microscope.

The next assay relates to P. falciparum Dd2. Briefly: Stage-specific activity assay (Giemsa smears, YOYO-1 flow cytometry). In kind it is cell-based, Plasmodium falciparum. The settings on record: synchronized Dd2, compound at 3X EC50 added at 6, 18, 30, 42 hpi. The method, then:
P. falciparum Dd2 cell line was synchronized using a combination of 5% sorbitol and magnetic column separation as described ([Roberts et al., 2016]). Cultures at 2% parasitemia and 2% hematocrit were added to microtiter plate wells and measurements began 6 h post-invasion (6 hpi). Hit compounds were added at 3X EC50 concentration at specified time points. Controls are DHA (3X EC50) and untreated cultures. Giemsa-stained thin smears were made for each time point and an aliquot of the culture was fixed for flow cytometric analysis using 0.04% glutaraldehyde in PBS. After fixing and aspirating, cells were permeabilized with 0.25% Triton-100 followed by treatment with RNase (0.05 mg/ml) for 3 h. Next, YOYO 1 (10.24 µM) fluorescent dye was added and samples were analyzed ([Bouillon et al., 2013]) using Beckman Coulter (Indianapolis, IN) CytoFlex S flowcytometer.

“Also recorded” adds a separate entry of the source.

In the case of `CC(C)C[C@@H](N)C(=O)N1CCC2(CCCCCc3ccccc3OCCN(C)C2=O)CC1` [DC-9236, CC(C)C[C@@H](N)C(=O)N1CCC2(CC1)CCCCCC1=C(OCCN(C)C2=O)C=CC=C1], in assay [1], the inhibition at 1 µM amounted to 98%. Besides, the EC50 in assay [2] was found to be 6.5 µM. Further, the Rate of killing result in the assay with Pf Dd2 is “higher elimination in the second life cycle; also recorded: inhibition in the second developmental cycle of Pf causing delayed death”. In addition, the Stage specific activity entry in the assay with P. falciparum Dd2 was “active in late Troph and early Schizont; also recorded: inhibits primarily the mature schizonts”.

In the case of `CCC1C2=NC(Cc3ccccc3)=C(O2)N(Cc2ccccc2)Cc2cn(nn2)CCCCN1Cc1ccccc1OCCN(C)C` (centres unmarked) [DC-9237, CCC1N(CC2=CC=CC=C2OCCN(C)C)CCCCN2C=C(CN(CC3=CC=CC=C3)C3=C(CC4=CC=CC=C4)N=C1O3)N=N2], the inhibition at 1 µM in assay [1] amounted to 95%. The EC50 in assay [2] was found to be 17 µM. Further, the Rate of killing result in the assay on Pf Dd2 was “fast-acting; also recorded: inhibited growth at all asexual stages after 6 h of exposure and parasite population did not resume growth even after 6 days”. Further, the Stage specific activity entry with P. falciparum Dd2 was “inhibits all asexual stages of Plasmodium falciparum; also recorded: inhibits all asexual blood stages of Dd2 including the early ring stage”.

The term inhibition denotes the drop in the measured response relative to a control, in per cent. By EC50 is commonly meant the midpoint of the concentration-response curve.
